This note sets out measurements from article PMC6161432 (The Journal of Venomous Animals and Toxins Including …, 2018).

Data set [1] has as its system Leishmania (L.) infantum promastigotes. The experiment in a line: Activity against L. (L.) infantum promastigotes (MTT viability assay). Conditions: 48 h at 24 °C, NA = not active, maximum tested concentration 100 μM; for EC50: read-out: EC50 Leishmania (L.) infantum Promastigote (95% CI). In kind it is cell-based. Here is the method: (§1) Isolated promastigotes of Leishmania (L.) infantum (MHOM/BR/1972/LD) were maintained in M-199 medium supplemented with 10% calf serum and 0.25% hemin at 24 °C. The L. (L.) infantum (MHOM/BR/1972/LD) was maintained in hamsters (Mesocricetus auratus). Amastigotes were harvested from spleens of infected hamsters. The animals were infected with 10^8 amastigotes (300 μL) by the i.p. route. At 60 days post-infection, the animals were euthanized, and the spleens analyzed by light microscopy using Giemsa-stained smears. The parasite load was expressed in Leishman-Donovan units (i.e., the number of amastigotes per 1000 nucleated cells x organ weight [in g] × 2 × 10^5). Briefly, the spleen was macerated in a tissue grinder tube containing 5 mL of phosphate-buffered saline (PBS), whereas the amastigotes were separated by differential centrifugation to obtain a suspension of parasites. The first centrifugation of the spleen suspension (0.8 rpm) was employed to separate the red and white cells (pellet) from the amastigote forms (supernatant). Next, a second centrifugation of the supernatant from the previous step (2.8 rpm) was performed to concentrate the amastigote forms.
Promastigotes were counted in a Neubauer hemocytometer and seeded at 1 × 10^6/well to obtain a final volume of 150 μL. Controls with DMSO and without drugs were also performed. Miltefosine was dissolved in H2O at 30 mg/mL and used as a standard drug. […] Each point was tested in duplicate. The plate was incubated for 48 h at 24 °C and the viability of promastigotes was verified by morphology in light microscopy and by the MTT assay. Briefly, MTT ([…]) was dissolved in PBS, sterilized through 0.22 μm membranes and added (20 μL/well) for 4 h at 24 °C. Promastigotes were incubated without compounds and used as viability control. Formazan extraction was performed using 10% SDS for 18 h (80 μL/well) at 24 °C and the optical density (OD) was determined in a Multiskan MS (UNISCIENCE) at 550 nm. One hundred percent (100%) viability was expressed based on the OD of control promastigotes, after normalization.
(§2) The obtained data represent the mean and standard deviation of duplicate samples from two independent assays. EC50 values were calculated using sigmoid dose–response curves in the software GraphPad Prism 5.0; the 95% confidence intervals are included in parentheses. The Mann–Whitney test was used for the significance test (P value).

The subject of data set [2] is Leishmania (L.) infantum intracellular amastigotes. The experiment in a line: Activity against L. (L.) infantum intracellular amastigotes in mouse peritoneal macrophages (Giemsa counting, parasitic index). The data set is classed as cell-based. As to conditions: for EC50: read-out: EC50 Leishmania (L.) infantum Amastigote (95% CI). The method, then: as §1
Peritoneal macrophages were collected from the peritoneal cavity of female BALB/c mice by washing with RPMI-1640 without phenol red, supplemented with 10% fetal bovine serum.
Amastigotes were isolated from spleens of previously infected hamsters, and separated by differential centrifugation. The tissue sample was macerated to break the cell membranes to release all cell contents including the amastigotes. Then the lysate was subjected to two repeated centrifugations (0.8 rpm followed 2.8 rpm) where density separation causes a sediment. The supernatant and the pellet were recovered via the first and second centrifugation, respectively. […] Non-internalized parasites were removed by washing once with medium, whereas tested compounds were incubated with infected macrophages for 96 h. Miltefosine was also used as a standard control drug. Subsequently, the cells were fixed with MeOH, stained with Giemsa and observed through a light microscope. The parasite burden was determined by the ratio of infected macrophages versus the mean number of amastigotes per macrophage out of 500 macrophages, i.e., the parasitic index (PI). […] Each point was tested in duplicate.
as §2

Data set [3] in a line: Cytotoxicity against mammalian cells (MTT assay). As to conditions: mouse.
The test system of another data set is NCTC clone L-929 cells. As to the kind of experiment: Cytotoxicity against mammalian cells (MTT assay). Conditions: CC50 against mammalian cells / EC50 against amastigotes.
The mark [4] stands for this setting: Peritoneal macrophage, 96 h, intracellular amastigotes in BALB/c peritoneal macrophages, 96 h incubation, NA = not active, maximum tested concentration 100 μM.
[5] abbreviates: intracellular amastigotes in BALB/c peritoneal macrophages, 96 h incubation, NA = not active, maximum tested concentration 100 μM.

“Also recorded” adds a separate entry of the source. Read-outs that look alike come from different tables or passages of the source.

On to `CCCCCCCCCCCCCCCCOP(=O)([O-])OCC[N+](C)(C)C` [miltefosine, reference compound], for which the EC50 (commonly the concentration needed to bring the measured effect to its halfway point) is 16.9 µM in data set [1] (48 h), 16.4 µM in data set [1], 16.4 µM in data set [2] (setting [4]) and 16.9 µM in data set [2] (setting [5]). The CC50 – broadly, the concentration giving 50% cytotoxicity – at 48 h in data set [3] (NCTC clone L-929 cells) amounted to 122 µM. In addition, the “SI Amastigote (selectivity index)” value with NCTC clone L-929 cells was determined as 7.2.

As to `C=CCc1ccc(OC)c(OC)c1` [methyleugenol], the “EC50 Leishmania (L.) infantum Amastigote (95% CI)” value in data set [2] (96 h, 100 µM) is “no activity”; in data set [2] (setting [5]), “did not display activity”. Besides, the CC50 at 48 h in data set [3] is > 200 µM.

With `C=CCc1ccc(O)c(OC)c1` [eugenol, reference compound], the “EC50 Leishmania (L.) infantum Promastigote (95% CI)” value in data set [1] is “no activity”. Also, in data set [2] (setting [5]), the “EC50 Leishmania (L.) infantum Amastigote (95% CI)” value is recorded as “did not display activity; also recorded: no activity”. Moreover, the CC50 at 48 h in data set [3] (NCTC clone L-929 cells) was > 200 µM.

As for `C=CCc1ccc(Oc2cc([C@H](O)C=C)cc(OC)c2OC)c(OC)c1` [Compound 4, 1-[(7R)-hydroxy-8-propenyl]-3-[3′-methoxy-1′-(8′-propenyl)-phenoxy]-4,5-dimethoxybenzene], the figures for the EC50 in data set [1] (48 h) and in data set [2] (setting [4]) were 65.4 µM and 67.7 µM, respectively. Also, in data set [3] (NCTC clone L-929 cells), the CC50 at 48 h is > 200 µM. Further, the “SI Amastigote (selectivity index)” value with NCTC clone L-929 cells was > 2.9.

Take `C=CCc1cc(OC)c(OC)c(-c2cc(CC=C)cc(OC)c2OC)c1` [Compound 6, dehydrodieugenol dimethyl ether]: the EC50 in data set [1] (48 h) came to 88.8 µM; in data set [2] (setting [4]), 13.7 µM. Moreover, the CC50 at 48 h in data set [3] (NCTC clone L-929 cells) was > 200 µM. Moreover, the “SI Amastigote (selectivity index)” value in the data set on NCTC clone L-929 cells is given as > 14.6.

Turning to `C=CCc1cc(OC)c(O)c(-c2cc(CC=C)cc(OC)c2O)c1` [Compound 5], the “EC50 Leishmania (L.) infantum Promastigote (95% CI)” value in data set [1] is reported as “no activity”. Further, the “EC50 Leishmania (L.) infantum Amastigote (95% CI)” value in data set [2] (setting [5]) is “inactive”. For the same compound, the CC50 at 48 h in data set [3] (NCTC clone L-929 cells) is 58.1 µM.

`C=CCc1ccc(Oc2cc([C@H](O)C=C)cc(OC)c2O)c(OC)c1` [Compound 3, 1-[(7R)-hydroxy-8-propenyl]-3-[3′-methoxy-1′-(8′-propenyl)-phenoxy]-4-hydroxy-5-methoxybenzene]: the “EC50 Leishmania (L.) infantum Promastigote (95% CI)” value in data set [1] is given as “no activity”. For the same compound, the “EC50 Leishmania (L.) infantum Amastigote (95% CI)” value in data set [2] (setting [5]) is “inactive”. Further, the CC50 at 48 h in data set [3] (NCTC clone L-929 cells) is > 200 µM.
